From ChEMBL document CHEMBL2390826, “Discovery of potent and efficacious urea-containing nicotinamide phosphoribosyltransferase (NAMPT) inhibitors with reduced CYP2C9 inhibition properties” (Bioorg Med Chem Lett, 2013)
In brackets after ≈: the same amount, converted by molar mass. Values belong to the compound of their own block, whether it stands above or below them.

How the values were obtained:
[1] = Hepatic clearance in human liver microsomes at 1 uM after 20 to 60 mins by LC-MS/MS analysis; assay type: ADME, Microsome
[2] = Aqueous solubility of the compound in PBS buffer at 100 uM after 24 hrs by LC/CLND analysis; assay type: physicochemical
[3] = Apparent permeability from apical to basolateral side in MDCK cells at 10 uM by LC-MS/MS analysis; assay type: ADME, cell-based, Canis lupus familiaris; details: dog
[4] = Hepatic clearance in CD-1 mouse hepatocytes at 1 uM by LC-MS/MS analysis; assay type: ADME, cell-based, Liver, Hepatocyte
[5] = Hepatic clearance in CD-1 mouse liver microsomes at 1 uM after 20 to 60 mins by LC-MS/MS analysis; assay type: ADME, Microsome
[6] = Oral bioavailability in BALB/c mouse at 5 mg/kg by LC/MS/MS analysis; assay type: ADME, organism-based; details: in vivo
[7] = Cmax in BALB/c mouse at 5 mg/kg, po by LC/MS/MS analysis; assay type: ADME, organism-based; design: dose 5 mg/kg, route oral; details: in vivo
[8] = Tmax in BALB/c mouse at 5 mg/kg, po by LC/MS/MS analysis; assay type: ADME, organism-based; design: dose 5 mg/kg, route oral; details: in vivo
[9] = Half life in BALB/c mouse at 1 mg/kg, iv by LC/MS/MS analysis; assay type: ADME, organism-based; design: dose 1 mg/kg, route intravenous; details: in vivo
[10] = Half life in BALB/c mouse at 5 mg/kg, po by LC/MS/MS analysis; assay type: ADME, organism-based; design: dose 5 mg/kg, route oral; details: in vivo
[11] = Volume of distribution at steady state in BALB/c mouse at 1 mg/kg, iv by LC/MS/MS analysis; assay type: ADME, organism-based; design: dose 1 mg/kg, route intravenous; details: in vivo, read-out: Vdss
[12] = Clearance in BALB/c mouse at 1 mg/kg, iv by LC/MS/MS analysis; assay type: ADME, organism-based; design: dose 1 mg/kg, route intravenous; details: in vivo

SMILES: O=C(NCc1cccnc1)Nc1ccc(S(=O)(=O)N2CCOCC2)cc1
- CLhep predicted at 1 µM [1]: 0.36 L/h/kg

SMILES: O=C(NCc1cccnc1)Nc1ccc(S(=O)(=O)c2ccccc2)cc1
- CLhep predicted at 1 µM [1]: 0.48 L/h/kg

SMILES: O=C(NCc1cccnc1)Nc1ccc(S(=O)(=O)N2C3CCC2COC3)cc1
- CLhep predicted at 1 µM [1]: 0.48 L/h/kg

SMILES: O=C(NCc1cccnc1)Nc1ccc(S(=O)(=O)N2CCC23COC3)cc1
- CLhep predicted at 1 µM [1]: 0.48 L/h/kg

SMILES: O=C(NCc1cccnc1)Nc1ccc(S(=O)(=O)N2CC3(COC3)C2)cc1
- CLhep predicted at 1 µM [1]: 0.42 L/h/kg

SMILES: O=C(NCc1cccnc1)Nc1ccc(S(=O)(=O)N2CCC3(CCCN3)CC2)cc1
- CLhep predicted at 1 µM [1]: 0.42 L/h/kg

SMILES: O=C(NCc1cccnc1)Nc1ccc(S(=O)(=O)N2CCC3(CCNC3)CC2)cc1
- solubility at 24 h, 100 µM [2]: 75 µM (≈ 32.2 µg/mL)
- Papp A→B at 10 µM [3]: 0.7 nm/s
- CLhep predicted at 1 µM [4]: 0.552 L/h/kg
- CLhep predicted at 1 µM [5]: 2.64 L/h/kg
- CLhep predicted at 1 µM [1]: 0.24 L/h/kg

SMILES: O=C(NCc1cccnc1)Nc1ccc(S(=O)(=O)N2CCC3(CCNCC3)C2)cc1
- CLhep predicted at 1 µM [1]: 0.12 L/h/kg

SMILES: O=C(NCc1cccnc1)Nc1ccc(S(=O)(=O)N2CCCNCC2)cc1
- CLhep predicted at 1 µM [1]: 0.36 L/h/kg

SMILES: O=C(NCc1cccnc1)Nc1ccc(S(=O)(=O)N[C@H]2CC[C@H](O)CC2)cc1
- CLhep predicted at 1 µM [1]: 0.12 L/h/kg

SMILES: O=C(NCc1cccnc1)Nc1ccc(S(=O)(=O)N[C@H]2CCC[C@H](O)C2)cc1
- solubility at 24 h, 100 µM [2]: 136 µM (≈ 55 µg/mL)
- Papp A→B at 10 µM [3]: 1 nm/s
- CLhep predicted at 1 µM [4]: 1.14 L/h/kg
- CLhep predicted at 1 µM [5]: 3.66 L/h/kg
- CLhep predicted at 1 µM [1]: 0.24 L/h/kg

SMILES: COc1ccc(CNC(=O)Nc2ccc(S(=O)(=O)c3ccccc3)cc2)cn1
- CLhep predicted at 1 µM [1]: 0.72 L/h/kg

SMILES: O=C(NCc1cncc(F)c1)Nc1ccc(S(=O)(=O)c2ccccc2)cc1
- CLhep predicted at 1 µM [1]: 0.48 L/h/kg

SMILES: O=C(NCc1cccnn1)Nc1ccc(S(=O)(=O)c2ccccc2)cc1
- CLhep predicted at 1 µM [1]: 0.18 L/h/kg

SMILES: O=C(NCc1cnccn1)Nc1ccc(S(=O)(=O)c2ccccc2)cc1
- CLhep predicted at 1 µM [1]: 0.3 L/h/kg

SMILES: O=C(NCc1cncnc1)Nc1ccc(S(=O)(=O)c2ccccc2)cc1
- CLhep predicted at 1 µM [1]: 0.36 L/h/kg

SMILES: Nc1ncc(CNC(=O)Nc2ccc(S(=O)(=O)c3ccccc3)cc2)cn1
- CLhep predicted at 1 µM [1]: 0.18 L/h/kg

SMILES: C[C@@H]1CN(S(=O)(=O)c2ccc(NC(=O)NCc3cccnc3)cc2)C[C@H](C)O1
- solubility at 24 h, 100 µM [2]: 112 µM (≈ 45.3 µg/mL)
- Papp A→B at 10 µM [3]: 31 nm/s
- CLhep predicted at 1 µM [4]: 3.3 L/h/kg
- CLhep predicted at 1 µM [5]: 4.86 L/h/kg
- CLhep predicted at 1 µM [1]: 1.02 L/h/kg

SMILES: CC1CNCCN(S(=O)(=O)c2ccc(NC(=O)NCc3cccnc3)cc2)C1 (racemic)
- solubility at 24 h, 100 µM [2]: 107 µM (≈ 43.2 µg/mL)
- Papp A→B at 10 µM [3]: 1 nm/s
- CLhep predicted at 1 µM [4]: 0.96 L/h/kg
- CLhep predicted at 1 µM [5]: 2.88 L/h/kg
- CLhep predicted at 1 µM [1]: 0.48 L/h/kg

Other lines, results leading:

- CLhep predicted at 1 µM [1]: 0.18 L/h/kg
SMILES: O=C(NCc1cccnc1)Nc1ccc(S(=O)(=O)N2C[C@@H]3C[C@H]2CO3)cc1

- CLhep predicted at 1 µM [1]: 0.18 L/h/kg
SMILES: O=C(NCc1cccnc1)Nc1ccc(S(=O)(=O)N[C@@H]2CCNC[C@H]2F)cc1

- CLhep predicted at 1 µM [1]: 0.36 L/h/kg
SMILES: CCN1CC[C@@H](NS(=O)(=O)c2ccc(NC(=O)NCc3cccnc3)cc2)[C@@H](F)C1

- solubility at 24 h, 100 µM [2]: 161 µM (≈ 65 µg/mL)
- Papp A→B at 10 µM [3]: 2 nm/s
- CLhep predicted at 1 µM [4]: 0.378 L/h/kg
- CLhep predicted at 1 µM [5]: 1.62 L/h/kg
- CLhep predicted at 1 µM [1]: 0.3 L/h/kg
SMILES: N[C@H]1CC[C@H](NS(=O)(=O)c2ccc(NC(=O)NCc3cccnc3)cc2)CC1

- CLhep predicted at 1 µM [1]: 0.36 L/h/kg
SMILES: O=C(NCc1ccc(Cl)nc1)Nc1ccc(S(=O)(=O)c2ccccc2)cc1

- bioavailability [6]: 31%
- solubility at 24 h, 100 µM [2]: 109 µM (≈ 41.7 µg/mL)
- Papp A→B at 10 µM [3]: 29 nm/s
- CLhep predicted at 1 µM [4]: 0.72 L/h/kg
- CLhep predicted at 1 µM [5]: 2.52 L/h/kg
- CLhep predicted at 1 µM [1]: 0.3 L/h/kg
- Cmax [7]: 2.9 µM
- Tmax [8]: 0.83 h
- half-life [9]: 2.6 h
- half-life [10]: 2.7 h
- Vd [11]: 0.51 L/kg
- clearance [12]: 0.294 L/h/kg
SMILES: Nc1ccc(CNC(=O)Nc2ccc(S(=O)(=O)c3ccccc3)cc2)cn1

- CLhep predicted at 1 µM [1]: 0.3 L/h/kg
SMILES: CC1CCN(S(=O)(=O)c2ccc(NC(=O)NCc3cccnc3)cc2)CCN1 (racemic)

- CLhep predicted at 1 µM [1]: 1.08 L/h/kg
SMILES: O=C(NCc1cccnc1)Nc1ccc(S(=O)(=O)N2CCNC(C(F)(F)F)CC2)cc1 (racemic)

- CLhep predicted at 1 µM [1]: 1.02 L/h/kg
SMILES: C[C@@H]1COC[C@@H](C)N1S(=O)(=O)c1ccc(NC(=O)NCc2cccnc2)cc1 (racemic)
